Reference: article PMC11628400 (Nature Cell Biology, 2024)

Assays:
NAT10 [1] = molecular target: T1, NAT10 (Homo sapiens, UniProt Q9H0A0); assay: DARTS; type: cell-based
T1 sequence (Q9H0A0 1-1025): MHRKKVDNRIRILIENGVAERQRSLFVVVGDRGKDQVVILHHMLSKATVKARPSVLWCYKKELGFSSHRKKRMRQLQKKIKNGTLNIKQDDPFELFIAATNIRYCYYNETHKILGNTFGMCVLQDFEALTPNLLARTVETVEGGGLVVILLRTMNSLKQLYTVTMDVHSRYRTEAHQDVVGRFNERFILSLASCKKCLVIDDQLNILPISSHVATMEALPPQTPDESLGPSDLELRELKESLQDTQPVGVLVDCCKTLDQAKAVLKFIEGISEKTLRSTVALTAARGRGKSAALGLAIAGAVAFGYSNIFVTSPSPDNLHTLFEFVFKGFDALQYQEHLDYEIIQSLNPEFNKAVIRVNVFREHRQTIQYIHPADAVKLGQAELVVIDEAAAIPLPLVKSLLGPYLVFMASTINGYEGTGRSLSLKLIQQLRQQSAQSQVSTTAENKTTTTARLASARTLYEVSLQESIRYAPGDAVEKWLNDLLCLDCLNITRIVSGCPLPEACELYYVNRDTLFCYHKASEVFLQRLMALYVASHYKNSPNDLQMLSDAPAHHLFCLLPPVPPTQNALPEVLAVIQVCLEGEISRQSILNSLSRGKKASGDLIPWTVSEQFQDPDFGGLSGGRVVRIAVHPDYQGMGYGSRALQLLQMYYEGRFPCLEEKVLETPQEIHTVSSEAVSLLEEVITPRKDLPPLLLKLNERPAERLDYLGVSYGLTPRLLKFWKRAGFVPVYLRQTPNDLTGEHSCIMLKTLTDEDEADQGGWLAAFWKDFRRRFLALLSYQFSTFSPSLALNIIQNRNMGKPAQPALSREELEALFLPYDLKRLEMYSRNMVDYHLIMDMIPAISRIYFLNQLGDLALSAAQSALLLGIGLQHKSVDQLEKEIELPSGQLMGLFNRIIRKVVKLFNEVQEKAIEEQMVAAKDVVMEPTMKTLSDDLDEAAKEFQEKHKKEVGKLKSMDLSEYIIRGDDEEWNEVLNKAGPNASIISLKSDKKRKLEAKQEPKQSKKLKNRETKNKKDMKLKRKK

NAT10 [2] = molecular target: T1, NAT10; assay: DARTS in MOLM13 lysate; type: cell-based

In the case of `Nc1nc(F)nc2c1ncn2[C@@H]1O[C@H](COP(=O)(O)OP(=O)(O)OP(=O)(O)O)[C@@H](O)[C@@H]1O` [F-ara-ATP, fludarabine triphosphate], the “DARTS (protection from pronase digestion) in MOLM13 lysate” value (NAT10 [1]) is reported as “The binding of fludarabine and F-ara-ATP with NAT10 were confirmed by drug affinity responsive target stability assay (DARTS)”.
In the case of `Nc1nc(F)nc2c1ncn2[C@@H]1O[C@H](COP(=O)(O)O)[C@@H](O)[C@@H]1O` [P-F-ara-A, fludarabine (P-F-ara-A)], the “DARTS (protection from pronase digestion) in MOLM13 lysate” value (NAT10 [1]) is reported as “DARTS assays evaluating the efficacy of Remodelin, P-F-ara-A and F-ara-ATP on protecting NAT10 protein against pronase digestion”.
For `N#Cc1ccc(-c2csc(NN=C3CCCC3)n2)cc1` [Remodelin], the “DARTS in MOLM13 lysate; CETSA in MonoMac6 cells” value (NAT10 [2]) was “Thermal shift curves of NAT10 from CETSA assays in MonoMac6 pretreated with fludarabine (F-ara-A), Remodelin or dimethylsulfoxide (DMSO)”.
